According to PubChem BioAssay (NCI):
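1) Cells in 96-well plates. 2) Compound, 48 h, 5 concentrations. 3) Linear interpolation between surrounding doses. 4) Unreached endpoint = highest concentration. GI50: concentration for 50% inhibition of growth. TGI is the concentration that stops growth completely.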

Columns and labels:
Experiment in all cases: DTP human tumour cell line panel, 48 h
[1] = test system: OVCAR-3 ovarian
[2] = test system: CAKI-1 renal
[3] = test system: SF-539 CNS
[4] = test system: MCF7 breast
[5] = test system: K-562 leukemia
[6] = test system: SK-MEL-2 melanoma
[7] = test system: HOP-62 NSCLC
[8] = test system: U251 CNS
[9] = test system: OVCAR-8 ovarian
[10] = test system: NCI-H23 lung
[11] = test system: SNB-75 CNS
[12] = test system: SNB-19 CNS
[13] = test system: SN12C renal
[14] = test system: SF-268 CNS
[15] = test system: DU-145 prostate
[16] = test system: T-47D breast
[17] = test system: COLO 205 colon
[18] = test system: NCI-H522 lung
[19] = test system: M14 melanoma
[20] = test system: SK-OV-3 ovarian
[21] = test system: EKVX NSCLC
[22] = test system: NCI-H226 lung
[23] = test system: BT-549 breast
[24] = test system: ACHN renal
[25] = test system: SF-295 CNS
[26] = test system: MDA-MB-435
[27] = test system: UO-31 renal
[28] = test system: OVCAR-5 ovarian
[29] = test system: PC-3 prostate
[30] = test system: A498 renal
[31] = test system: RPMI-8226 leukemia
[32] = test system: HCT-116 colon
[33] = test system: KM12 colon
[34] = test system: MOLT-4 leukemia
[35] = test system: OVCAR-4 ovarian
[36] = test system: SK-MEL-5 melanoma
[37] = test system: UACC-257 melanoma
[38] = test system: HT29 colon
[39] = test system: HCC-2998 colon
[40] = test system: IGROV1 ovarian
[41] = test system: A549 NSCLC
[42] = test system: TK-10 renal
[43] = test system: SR leukemia
[44] = test system: RXF 393 renal
[45] = test system: NCI-H460 lung
[46] = test system: SK-MEL-28 melanoma
[47] = test system: MALME-3M melanoma
[48] = test system: MDA-MB-231 breast
[49] = test system: UACC-62 melanoma
[50] = test system: SW-620 colon
[51] = test system: CCRF-CEM leukemia
[52] = test system: HS 578T breast
[53] = test system: HOP-92 NSCLC
[54] = test system: LOX IMVI melanoma
[55] = test system: HL-60(TB) leukemia
[56] = test system: NCI/ADR-RES ovarian
[57] = test system: HCT-15 colon
[58] = test system: 786-0 renal

SMILES: Cc1cc(OCCOCCC(F)(F)P(=O)(O)O)ccc1CCc1cnc2c(N)nc3cc(CCC(=O)O)ccc3c2c1
- GI50 [1]: > 100 µM
- TGI [1]: > 100 µM
- GI50 [2]: 72.7 µM
- TGI [2]: > 100 µM
- GI50 [3]: > 100 µM
- TGI [3]: > 100 µM
- GI50 [4]: > 100 µM
- TGI [4]: > 100 µM
- GI50 [5]: > 100 µM
- TGI [5]: > 100 µM
- GI50 [6]: > 100 µM
- TGI [6]: > 100 µM
- GI50 [7]: > 100 µM
- TGI [7]: > 100 µM
- GI50 [8]: > 100 µM
- TGI [8]: > 100 µM
- GI50 [9]: > 100 µM
- TGI [9]: > 100 µM
- GI50 [10]: > 100 µM
- TGI [10]: > 100 µM
- GI50 [11]: 14 µM
- TGI [11]: > 100 µM
- GI50 [12]: > 100 µM
- TGI [12]: > 100 µM
- GI50 [13]: > 100 µM
- TGI [13]: > 100 µM
- GI50 [14]: > 100 µM
- TGI [14]: > 100 µM
- GI50 [15]: > 100 µM
- TGI [15]: > 100 µM
- GI50 [16]: > 100 µM
- TGI [16]: > 100 µM
- GI50 [17]: > 100 µM
- TGI [17]: > 100 µM
- GI50 [18]: > 100 µM
- TGI [18]: > 100 µM
- GI50 [19]: > 100 µM
- TGI [19]: > 100 µM
- GI50 [20]: > 100 µM
- TGI [20]: > 100 µM
- GI50 [21]: > 100 µM
- TGI [21]: > 100 µM
- GI50 [22]: > 100 µM
- TGI [22]: > 100 µM
- GI50 [23]: > 100 µM
- TGI [23]: > 100 µM
- GI50 [24]: > 100 µM
- TGI [24]: > 100 µM
- GI50 [25]: > 100 µM
- TGI [25]: > 100 µM
- GI50 [26]: > 100 µM
- TGI [26]: > 100 µM
- GI50 [27]: > 100 µM
- TGI [27]: > 100 µM
- GI50 [28]: > 100 µM
- TGI [28]: > 100 µM
- GI50 [29]: > 100 µM
- TGI [29]: > 100 µM
- GI50 [30]: 26.2 µM
- TGI [30]: > 100 µM
- GI50 [31]: > 100 µM
- TGI [31]: > 100 µM
- GI50 [32]: > 100 µM
- TGI [32]: > 100 µM
- GI50 [33]: > 100 µM
- TGI [33]: > 100 µM
- GI50 [34]: > 100 µM
- TGI [34]: > 100 µM
- GI50 [35]: > 100 µM
- TGI [35]: > 100 µM
- GI50 [36]: > 100 µM
- TGI [36]: > 100 µM
- GI50 [37]: > 100 µM
- TGI [37]: > 100 µM
- GI50 [38]: > 100 µM
- TGI [38]: > 100 µM
- GI50 [39]: > 100 µM
- TGI [39]: > 100 µM
- GI50 [40]: > 100 µM
- TGI [40]: > 100 µM
- GI50 [41]: > 100 µM
- TGI [41]: > 100 µM
- GI50 [42]: > 100 µM
- TGI [42]: > 100 µM
- GI50 [43]: > 100 µM
- TGI [43]: > 100 µM
- GI50 [44]: > 100 µM
- TGI [44]: > 100 µM
- GI50 [45]: > 100 µM
- TGI [45]: > 100 µM
- GI50 [46]: > 100 µM
- TGI [46]: > 100 µM
- GI50 [47]: > 100 µM
- TGI [47]: > 100 µM
- GI50 [48]: > 100 µM
- TGI [48]: > 100 µM
- GI50 [49]: > 100 µM
- TGI [49]: > 100 µM
- GI50 [50]: > 100 µM
- TGI [50]: > 100 µM
- GI50 [51]: > 100 µM
- TGI [51]: > 100 µM
- GI50 [52]: 26.6 µM
- TGI [52]: > 100 µM
- GI50 [53]: 6.61 µM
- TGI [53]: > 100 µM
- GI50 [54]: > 100 µM
- TGI [54]: > 100 µM
- GI50 [55]: > 100 µM
- TGI [55]: > 100 µM
- GI50 [56]: > 100 µM
- TGI [56]: > 100 µM
- GI50 [57]: > 100 µM
- TGI [57]: > 100 µM

SMILES: CC(=O)/C=C/C1=C(c2csc3ccccc23)c2ccccc2CC1
- GI50 [1]: 13.6 µM
- TGI [1]: 43.3 µM
- GI50 [2]: 32.4 µM
- TGI [2]: > 100 µM
- GI50 [3]: 26.4 µM
- TGI [3]: 71 µM
- GI50 [4]: 21.8 µM
- TGI [4]: 87.8 µM
- GI50 [5]: 18.8 µM
- TGI [5]: > 100 µM
- GI50 [6]: 15.2 µM
- TGI [6]: 40.9 µM
- GI50 [7]: 44.5 µM
- TGI [7]: > 100 µM
- GI50 [8]: 31.1 µM
- TGI [8]: > 100 µM
- GI50 [9]: 30.4 µM
- TGI [9]: > 100 µM
- GI50 [11]: 22.4 µM
- TGI [11]: > 100 µM
- GI50 [12]: 32.5 µM
- TGI [12]: > 100 µM
- GI50 [13]: 32.6 µM
- TGI [13]: > 100 µM
- GI50 [14]: 31.8 µM
- TGI [14]: > 100 µM
- GI50 [15]: 29.4 µM
- TGI [15]: > 100 µM
- GI50 [16]: 22.6 µM
- TGI [16]: > 100 µM
- GI50 [17]: 20.5 µM
- TGI [17]: 64.8 µM
- GI50 [18]: 14.2 µM
- TGI [18]: 67.9 µM
- GI50 [19]: 16.5 µM
- TGI [19]: 37.3 µM
- GI50 [20]: 22.4 µM
- TGI [20]: > 100 µM
- GI50 [21]: 30.4 µM
- TGI [21]: > 100 µM
- GI50 [22]: 19.8 µM
- TGI [22]: 44.1 µM
- GI50 [23]: 22.9 µM
- TGI [23]: 55 µM
- GI50 [24]: 25.4 µM
- TGI [24]: 88.3 µM
- GI50 [25]: 21 µM
- TGI [25]: 65.2 µM
- GI50 [26]: 21.6 µM
- TGI [26]: 70.7 µM
- GI50 [27]: 11.6 µM
- TGI [27]: 41.2 µM
- GI50 [28]: 33.8 µM
- TGI [28]: > 100 µM
- GI50 [29]: 29.9 µM
- TGI [29]: > 100 µM
- GI50 [30]: 22.4 µM
- TGI [30]: 50.2 µM
- GI50 [31]: 8.69 µM
- TGI [31]: 47.3 µM
- GI50 [32]: 6.16 µM
- TGI [32]: 95 µM
- GI50 [33]: 14.1 µM
- TGI [33]: 33.8 µM
- GI50 [34]: 15.6 µM
- TGI [34]: > 100 µM
- GI50 [35]: 17.8 µM
- TGI [35]: > 100 µM
- GI50 [36]: 13.4 µM
- TGI [36]: 28.8 µM
- GI50 [37]: 20.8 µM
- TGI [37]: 53.9 µM
- GI50 [38]: 21.3 µM
- TGI [38]: > 100 µM
- GI50 [39]: 24.3 µM
- TGI [39]: 49.6 µM
- GI50 [40]: 15.4 µM
- TGI [40]: > 100 µM
- GI50 [41]: 24 µM
- TGI [41]: > 100 µM
- GI50 [42]: 23.5 µM
- TGI [42]: 92.9 µM
- GI50 [43]: 16 µM
- TGI [43]: 64.6 µM
- GI50 [44]: 20.2 µM
- TGI [44]: 46.5 µM
- GI50 [46]: 16.9 µM
- TGI [46]: 37.1 µM
- GI50 [47]: 21.7 µM
- TGI [47]: 55.4 µM
- GI50 [48]: 22.8 µM
- TGI [48]: 69.5 µM
- GI50 [58]: 35.7 µM
- TGI [58]: > 100 µM
- GI50 [49]: 12.8 µM
- TGI [49]: 30.5 µM
- GI50 [50]: 28 µM
- TGI [50]: > 100 µM
- GI50 [51]: 23.2 µM
- TGI [51]: 79.4 µM
- GI50 [52]: 35 µM
- TGI [52]: > 100 µM
- GI50 [53]: 19.5 µM
- TGI [53]: 65.3 µM
- GI50 [54]: 16.9 µM
- TGI [54]: 48.4 µM
- GI50 [55]: 13.6 µM
- TGI [55]: 58.3 µM
- GI50 [56]: 21.8 µM
- TGI [56]: 72.7 µM
- GI50 [57]: 23.5 µM
- TGI [57]: > 100 µM
